The values that follow are results of earlier work, collected in patent US6756428B2, “Degradable plastics possessing a microbe-inhibiting quality” (Seefar Technologies, Incorporated, priority 1999, dated 2004).

≈ marks a conversion by molar mass, not a printed value. Where two headings read alike, the source gives them in different places.

Data set [1] concerns Staphylococcus aureus bacteria.
The test system of data set [2] is Pseudomonas aeruginosa bacteria. Conditions: bacterium P aeruginosa.

As to `Cc1ccc(S(=O)(=O)C(I)I)cc1` [DIMTS, diiodomethyl-p-tolylsulphone], the solubility in acetone (acetone, 25° C.) is 350 mg/mL (≈ 829 mM). Besides, for the setting “25° C.”, the solubility in ethanol was 20 mg/mL (≈ 47.4 mM) and the solubility in water was 0.0001 mg/mL (≈ 0.000237 mM). Also, the MIC result in data set [1] (against Staphylococcus aureus bacteria) was “about 50 mg/L”. Moreover, the MIC result in the data set with fungus Aspergillus niger (against the fungus Aspergillus niger) is “about 5 mg/L”.
For the compound `Oc1cc(Cl)ccc1Oc1ccc(Cl)cc1Cl` [triclosan, 2,4,4″-trichloro-2-hydroxydiphenylether], the “solubility in ethanol” value is “soluble” and the “solubility in water” value is “insoluble”. For the same compound, the “solubility in dilute alkali solution” value (dilute alkali solution) was “sparingly soluble”. For the same compound, the MIC entry in data set [1] (against S. aureus) is reported as “about 0.01 ppm”. For the same compound, the MIC entry in data set [2] is on record as “about 100 ppm”. Further, in the data set with fungus Aspergillus niger (against A. niger), the MIC result is reported as “about 100 ppm”. Moreover, the LD50 oral toxicity with dogs was more than 5000 mg/kg.
